{"source": "patent US20240122938A1", "about": "“METHODS AND COMPOSITIONS FOR TREATING UVEAL MELANOMA” (INSERM (INSTITUT NATIONAL DE LA SANTÉ ET DE LA RECHERCHE …, priority 2019, published 2024)", "key": {"OMM1 cells": {"system": "OMM1 cells", "assay": "Cell proliferation assay", "type": "cell-based, human", "procedure": "(§1) Human uveal melanoma cell lines and short-term cultures derived from different patients with metastatic malignant melanoma cells were grown in DMEM supplemented with 7% FBS at 37° C. in a humidified atmosphere containing 5% CO2. Lipofectamine™ RNAiMAX and opti-MEM medium were purchased from Invitrogen (San Diego, CA, USA). ABT-263 was obtained from Euromedex and qVD from Clinisciences."}, "[1]": {"system": "OMM2,5 metastatic melanoma cells", "assay": "Cell proliferation assay", "type": "cell-based, human", "procedure": "as §1"}, "primary melanoma cells": {"system": "primary melanoma cells", "assay": "Cell proliferation assay", "type": "cell-based, human", "conditions": "data not shown", "procedure": "as §1"}, "Mel270 cells": {"system": "Mel270 cells", "assay": "Cell death / alive cells by Annexin V/DAPI FACS", "type": "cell-based, human", "conditions": "GSK2606414 5 μM, 48 h", "procedure": "FIG. 5: PERK dampens ABT-263 killing activity. (A) Q-PCR analysis of PERK level in Mel270 uveal melanoma cells treated with control (siCtl) or PERK (siPERK) siRNA for 48 hr. (B) Mel270 cells were treated with control (siCtl) or PERK (siPERK) siRNA for 48 hrs before being exposed to ABT-263 3 μM for 48 hr. FACS analyses of Annexin V/DAPI double staining in […] indicate alive (white) or dead (early, late apoptosis and necrosis in light grey) cells. (C) Mel270 cells were treated with ABT-263 5 μM or GSK2606414 5 μM alone or in combination for 48 h.\n(§2) Cells were seeded at a density of 100 000 cells/well, in 6-well plate and treated with ABT-263 for indicated time. Cells were harvested using accutase enzyme, washed twice with ice-cold phosphate-buffered saline, resuspended in a buffer (Hepes 250 mM, NaCl 150 mM, KCl 5 mM, MgCl2 2 mM, CaCl2) 2 mM) with DAPI (1 μg/ml) and Annexin V-Alexa Fluor 647 conjugate (1/100) and incubated for 15 minutes at room temperature (25° C.) in the dark. Samples were immediately analyzed by a flow cytometer (MACS QUANT) using a laser at 405 nm excitation with a bandpass filter at 425 nm and 475 nm for DAPI detection and a laser at 635 nm excitation with a bandpass filter at 650 nm and 665 nm for Alexa Fluor 647 dye. Annexin and DAPI mono- or double positive cells were counted as dead cells."}, "92.1 cells": {"system": "92.1 cells", "assay": "Cell death / apoptosis", "type": "cell-based, human", "conditions": "data not shown", "procedure": "as §2"}, "[2]": {"system": "ER stress molecules in Mel270 cells", "assay": "Western blot of ER stress molecules", "type": "cell-based, human", "procedure": "Western blot of ER stress molecules in Mel270 cells treated with ABT-263 5 μM in the absence or presence of QVD-OPh 20 μM. Representative western blot are shown.\n(§3) Western blotting was performed as previously described 25,26. Briefly, cell lysates (30 μg) were separated using SDS-PAGE, transferred onto a PVDF membrane and subsequently exposed to the appropriate antibodies, anti-BCL2 (ms-123-PO) was from neomarker, anti-caspase 3 (#610323) was from BD, anti-BAX (#8429) was from sigma, anti-PARP (#9542), anti-BCL-XL (#2762), anti-caspase 9 (#9502) and anti-PUMA (#4976) were from Cell Signaling Technology Inc, anti-MCL1 (#sc-819), anti-NOXA (#56169), and anti-HSP90 (#sc-13119) were from Santa Cruz biotechnology. The proteins were visualized using the ECL system (Amersham)."}, "[3]": {"system": "Mel270 uveal melanoma cells", "assay": "Mitochondrial membrane potential by TMRE staining", "type": "cell-based, human", "conditions": "Mel270 cells", "procedure": "(§4) FIG. 1. ABT-263 induces apoptosis of uveal melanoma cells. Detection of the mitochondrial membrane potential using TMRE staining in Mel270 and OMM1 uveal melanoma cells exposed to ABT-263 3 μM or 5 μM for 48 h in the absence or presence of QVD-OPh 20 μM."}, "[4]": {"system": "OMM1 uveal melanoma cells", "assay": "Mitochondrial membrane potential by TMRE staining", "type": "cell-based, human", "conditions": "OMM1 cells", "procedure": "as §4"}, "[5]": {"system": "PARP, caspase 9 and caspase 3 in primary and metastatic uveal melanoma cells", "assay": "Western blot of PARP and caspases", "type": "cell-based, human", "conditions": "pretreatment with pan caspase inhibitor"}, "[6]": {"system": "panel of human uveal melanoma cell lines", "assay": "Cell death by Annexin V/DAPI staining with qVD", "type": "cell-based", "conditions": "all cell lines", "procedure": "as §2"}, "[7]": {"system": "ER stress molecules in metastatic human uveal melanoma cells", "assay": "Western blot of ER stress molecules", "type": "cell-based", "conditions": "OMM1", "procedure": "as §3, with “(Amersham). The western blots shown are representative of at least 3 independent experiments.” for “(Amersham).”"}}, "data": [{"compound": "CC1(C)CCC(CN2CCN(c3ccc(C(=O)NS(=O)(=O)c4ccc(NCC5CCOCC5)c([N+](=O)[O-])c4)c(Oc4cnc5[nH]ccc5c4)c3)CC2)=C(c2ccc(Cl)cc2)C1", "note": "[ABT-199]", "values": [{"measurement": "proliferation inhibition", "setting": "OMM1 cells; OMM1 cells, data not shown", "value": 15, "unit": "%"}]}, {"compound": "CN(C)CC[C@H](CSc1ccccc1)Nc1ccc(S(=O)(=O)NC(=O)c2ccc(N3CCN(Cc4ccccc4-c4ccc(Cl)cc4)CC3)cc2)cc1[N+](=O)[O-]", "note": "[ABT-737]", "values": [{"measurement": "proliferation", "setting": "OMM1 cells; OMM1 metastatic melanoma cells", "value": "strongly reduced proliferation"}, {"measurement": "proliferation", "setting": "[1]", "value": "strongly reduced proliferation"}, {"measurement": "proliferation, response of primary melanoma cells", "setting": "primary melanoma cells", "value": "highly resistant"}]}, {"compound": "Cn1cc(-c2ccc3c(c2)CCN3C(=O)Cc2cccc(C(F)(F)F)c2)c2c(N)ncnc21", "note": "[GSK2606414]", "values": [{"measurement": "viable cells, alone", "setting": "Mel270 cells", "value": "no effect"}, {"measurement": "sensitivity of 92.1 cells to ABT-263 with GSK2606414", "setting": "92.1 cells", "value": "resensitized"}, {"measurement": "CHOP and ATF4 accumulation", "setting": "[2]; cell line not stated, data not shown", "value": "inhibited CHOP and ATF4 accumulation"}]}, {"compound": "CC(C)[C@H](NC(=O)c1ccc2ccccc2n1)C(=O)N[C@@H](CC(=O)O)C(=O)COc1c(F)cccc1F", "note": "[qVD]", "values": [{"measurement": "effect of qVD on mitochondrial membrane depolarization after ABT-263", "setting": "[3]", "value": "did not prevent it"}, {"measurement": "effect of qVD on mitochondrial membrane depolarization after ABT-263", "setting": "[4]", "value": "prevented mitochondrial membrane depolarization"}, {"measurement": "PARP and caspase cleavage under ABT-263 after QVD pretreatment", "setting": "[5]", "value": "prevented PARP and caspase cleavage"}, {"measurement": "effect of qVD on ABT-263 mediated change in ER molecules", "setting": "[2]; Mel270, QVD-OPh 20 μM", "value": "did not impact"}, {"measurement": "effect of qVD on ABT-263 cytotoxicity", "setting": "[6]", "value": "protective effect"}]}, {"compound": "tunicamycin", "values": [{"measurement": "CHOP stimulation", "setting": "[7]", "value": "able to stimulate CHOP"}]}]}
